Experimental data from PubChem BioAssay (NCI).
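The compound was tested at five concentrations on cells cultured in 96-well plates, with a 48-hour exposure period. GI50 = concentration required for 50% inhibition of growth. TGI: concentration producing complete growth inhibition.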

Legend:
Test in all cases: growth of human tumour cells (NCI), 48 h
SN12C renal = system: SN12C renal
SF-295 CNS = system: SF-295 CNS
COLO 205 colon = system: COLO 205 colon
HOP-92 NSCLC = system: HOP-92 NSCLC
NCI-H460 lung = system: NCI-H460 lung
HCT-15 colon = system: HCT-15 colon
CAKI-1 renal = system: CAKI-1 renal
SK-OV-3 ovarian = system: SK-OV-3 ovarian
HOP-62 NSCLC = system: HOP-62 NSCLC
OVCAR-5 ovarian = system: OVCAR-5 ovarian

| SMILES | GI50 (SN12C renal) [µM] | TGI (SN12C renal) [µM] | GI50 (SF-295 CNS) [µM] | TGI (SF-295 CNS) [µM] | GI50 (COLO 205 colon) [µM] | TGI (COLO 205 colon) [µM] | GI50 (HOP-92 NSCLC) [µM] | TGI (HOP-92 NSCLC) [µM] | GI50 (NCI-H460 lung) [µM] | TGI (NCI-H460 lung) [µM] | GI50 (HCT-15 colon) [µM] | TGI (HCT-15 colon) [µM] | GI50 (CAKI-1 renal) [µM] | TGI (CAKI-1 renal) [µM] | GI50 (SK-OV-3 ovarian) [µM] | TGI (SK-OV-3 ovarian) [µM] | GI50 (HOP-62 NSCLC) [µM] | TGI (HOP-62 NSCLC) [µM] | TGI (OVCAR-5 ovarian) [µM] |
| --- | --- | --- | --- | --- | --- | --- | --- | --- | --- | --- | --- | --- | --- | --- | --- | --- | --- | --- | --- |
| CCOC(=O)NC(=S)N(CC(=O)c1cc(OC)c(OC)c(OC)c1)c1ccc(Cl)cc1 | > 100 | > 100 | 76.7 | > 100 | > 100 | > 100 | 38.9 | > 100 | 52.5 | > 100 | 62.6 | > 100 | 63.5 | > 100 | > 100 | > 100 | > 100 | > 100 | – |
| COC(=N)C1(C#N)NC(c2ccsc2)C(C#N)(C#N)NC1c1ccsc1 (stereo not drawn) | – | > 100 | – | > 100 | – | > 100 | – | > 100 | – | > 100 | – | > 100 | – | > 100 | – | > 100 | – | > 100 | > 100 |
| CCC1(c2ccc(N3C(=O)c4cccc5cc([N+](=O)[O-])cc(c45)C3=O)cc2)CCC(=O)NC1=O (stereo not drawn) | – | 24.8 | – | 41.4 | – | > 100 | – | 8.8 | – | > 50 | – | > 100 | – | 50.9 | – | 39.5 | – | 26.9 | > 100 |
| COc1cc2c(cc1O)C1Cc3ccc(OC)c(O)c3C[N+]1(C)CC2 (stereo not drawn) | – | > 100 | – | > 100 | – | > 100 | – | > 100 | – | > 100 | – | > 100 | – | > 100 | – | > 100 | – | > 100 | > 100 |
| O=C(O)C(Cc1ccccc1)NCc1c(O)ccc2c(-c3ccccc3)cc(=O)oc12 (stereo not drawn) | – | > 100 | – | > 100 | – | > 100 | – | > 100 | – | > 100 | – | > 100 | – | > 100 | – | > 100 | – | > 100 | > 100 |
| CC(C)(C)C(=O)Nc1c(C=O)ccc2[nH]cnc12 | – | > 100 | – | > 100 | – | > 100 | – | > 100 | – | > 100 | – | > 100 | – | > 100 | – | > 100 | – | > 100 | > 100 |
| COc1cc2c(/C=C3/C(=O)Nc4ccccc43)c(Cl)n(Cc3ccc(Cl)cc3)c2cc1C | – | 1.06 | – | 3.06 | – | 0.665 | – | 39.5 | – | 2.3 | – | 0.969 | – | 0.834 | – | 2.85 | – | 0.821 | 8.84 |
| CCOC(=O)c1c(-c2ccc(OC)cc2)ccn1C | – | > 10 | – | > 10 | – | > 10 | – | > 10 | – | > 10 | – | > 10 | – | > 10 | – | > 10 | – | > 10 | > 10 |
| CC(O)c1nc(C#N)c(N)o1 (stereo not drawn) | – | > 100 | – | > 100 | – | > 100 | – | > 100 | – | – | – | – | – | > 100 | – | > 100 | – | > 100 | > 100 |
| COc1ccccc1NC(=O)C(=O)C(C(=O)c1ccccc1F)C1OC(=O)c2ccccc21 (stereo not drawn) | – | 87.2 | – | > 100 | – | 43.6 | – | > 100 | – | 74.7 | – | 69.2 | – | 86.7 | – | 99.7 | – | > 100 | > 100 |
| Cc1nc2c(Br)cc(Br)cc2c(=O)n1-c1ccccc1NC1OC(CO)C(O)C(O)C1O (stereo not drawn) | – | > 100 | – | > 100 | – | > 100 | – | > 100 | – | > 100 | – | > 100 | – | > 100 | – | > 100 | – | > 100 | > 100 |
| Cc1c(C)c2c(c(N)c1C#N)C(=O)N(N)C2=O | – | > 100 | – | > 100 | – | > 100 | – | > 100 | – | > 100 | – | > 100 | – | > 100 | – | > 100 | – | – | > 100 |
| Cn1/c(=N\N=C2\C=C3CCCCC3(C)CC2)sc2ccccc21 (stereo not drawn) | – | > 100 | – | > 100 | – | > 100 | – | > 100 | – | > 100 | – | > 100 | – | > 100 | – | > 100 | – | > 100 | > 100 |
| COC(=O)C1=C(CCCCO[Si](C)(C)C(C)(C)C)NC(=O)N2[C@H](CCOCc3ccccc3)CC[C@@H]12 | – | > 100 | – | > 100 | – | > 100 | – | > 100 | – | > 100 | – | > 100 | – | > 100 | – | > 100 | – | > 100 | > 100 |
| O=C1c2ccccc2-c2nc3ccncc3n21 | – | > 100 | – | > 100 | – | > 100 | – | > 100 | – | > 100 | – | > 100 | – | > 100 | – | > 100 | – | > 100 | > 100 |
| C[n+]1cccc2ccc3cccnc3c21 | – | > 100 | – | > 100 | – | 70 | – | > 100 | – | > 100 | – | > 100 | – | > 100 | – | > 100 | – | 75 | > 100 |
| Cc1cn(CCCCCCOC(=O)NC(CCCNC(N)=O)C(=O)O)c(=O)[nH]c1=O (stereo not drawn) | – | > 100 | – | > 100 | – | > 100 | – | > 100 | – | > 100 | – | > 100 | – | > 100 | – | > 100 | – | > 100 | > 100 |
| COc1ccc(N2C(=O)C3c4[nH]c5c(C)cccc5c4C4CCC(C(C)C)CC4C3C2=O)cc1 (stereo not drawn) | – | 98 | – | 38.3 | – | > 100 | – | 34.4 | – | 39.7 | – | 40.6 | – | 37.6 | – | 47.7 | – | 22.7 | 29.7 |
| COc1ccc(-c2ccc(C(=O)C=P(c3ccccc3)(c3ccccc3)c3ccccc3)cc2)cc1 | – | 28.5 | – | 40.3 | – | 13.9 | – | 34 | – | 20.5 | – | 29.6 | – | 42 | – | 34.9 | – | 43.9 | 44.8 |
| O=c1c2cc(Br)cc(Br)c2[nH]c(=S)n1-c1ccc(N=Nc2ccc(O)c3cccnc23)cc1 | – | > 100 | – | > 100 | – | > 100 | – | 41.6 | – | – | – | – | – | > 100 | – | > 100 | – | > 100 | > 100 |
